In publication PMC10175095 (Therapeutic drug monitoring, 2023):

What was measured:
[1] = Long-term stability of unprocessed plasma samples at −80°C; format: in vitro ADME; details: human plasma
[2] = Freeze-thaw stability of unprocessed plasma samples; format: in vitro ADME; details: human plasma, 3 freeze (-80°C)-thaw cycles
[3] = Processed sample stability in final extract; format: physicochemical; details: 4°C, autosampler, 25.1 h
[4] = Pre-processed stability in human plasma; format: in vitro ADME; details: 2.5 h
[5] = major systemic metabolite; cited from earlier work
[6] = test system: CDK4/6; details: compared with abemaciclib; cited from earlier work
[7] = Reinjection stability in final extract; format: physicochemical; details: reinjected, 4°C, autosampler, 25.95 h
[8] = RT (20–25°C), yellow light, nominal 15 ng/mL
[9] = RT (20–25°C), yellow light, nominal 1500 ng/mL

Accuracy vs fresh QCs ([1]; 3 months, nominal 15 ng/mL): 107% | Accuracy vs. nominal concentration ([1]; 3 months, nominal 15 ng/mL): 97.6% | Mean measured concentration ([1]; 3 months, nominal 15 ng/mL): 14.6 ng/mL | Accuracy vs fresh QCs ([1]; 3 months, nominal 150 ng/mL): 104% | Accuracy vs. nominal concentration ([1]; 3 months, nominal 150 ng/mL): 100% | Mean measured concentration ([1]; 3 months, nominal 150 ng/mL): 150 ng/mL | Accuracy vs fresh QCs ([1]; 3 months, nominal 1500 ng/mL): 98.7% | Accuracy vs. nominal concentration ([1]; 3 months, nominal 1500 ng/mL): 100% | Mean measured concentration ([1]; 3 months, nominal 1500 ng/mL): 1503 ng/mL | Accuracy vs fresh QCs ([1]; 7 months, nominal 15 ng/mL): 102% | Accuracy vs. nominal concentration ([1]; 7 months, nominal 15 ng/mL): 96.9% | Mean measured concentration ([1]; 7 months, nominal 15 ng/mL): 14.5 ng/mL | Accuracy vs fresh QCs ([1]; 7 months, nominal 150 ng/mL): 92.4% | Accuracy vs. nominal concentration ([1]; 7 months, nominal 150 ng/mL): 102% | Mean measured concentration ([1]; 7 months, nominal 150 ng/mL): 154 ng/mL | Accuracy vs fresh QCs ([1]; 7 months, nominal 1500 ng/mL): 93.8% | Accuracy vs. nominal concentration ([1]; 7 months, nominal 1500 ng/mL): 93.6% | Mean measured concentration ([1]; 7 months, nominal 1500 ng/mL): 1403 ng/mL | Accuracy vs fresh QCs ([1]; 12 months, nominal 15 ng/mL): 111% | Accuracy vs. nominal concentration ([1]; 12 months, nominal 15 ng/mL): 101% | Mean measured concentration ([1]; 12 months, nominal 15 ng/mL): 15.1 ng/mL | Accuracy vs fresh QCs ([1]; 12 months, nominal 150 ng/mL): 95.6% | Accuracy vs. nominal concentration ([1]; 12 months, nominal 150 ng/mL): 110% | Mean measured concentration ([1]; 12 months, nominal 150 ng/mL): 166 ng/mL | Accuracy vs fresh QCs ([1]; 12 months, nominal 1500 ng/mL): 96.8% | Accuracy vs. nominal concentration ([1]; 12 months, nominal 1500 ng/mL): 104% | Mean measured concentration ([1]; 12 months, nominal 1500 ng/mL): 1567 ng/mL | Accuracy vs fresh QCs ([2]; nominal 15 ng/mL): 98.2% | Accuracy vs. nominal concentration ([2]; nominal 15 ng/mL): 100% | Mean measured concentration ([2]; nominal 15 ng/mL): 15.0 ng/mL | Accuracy vs fresh QCs ([2]; nominal 1500 ng/mL): 98.2% | Accuracy vs. nominal concentration ([2]; nominal 1500 ng/mL): 99.6% | Mean measured concentration ([2]; nominal 1500 ng/mL): 1493 ng/mL | Accuracy vs fresh QCs ([3]; nominal 15 ng/mL): 100% | Accuracy vs. nominal concentration ([3]; nominal 15 ng/mL): 110% | Mean measured concentration ([3]; nominal 15 ng/mL): 16.5 ng/mL | Accuracy vs fresh QCs ([3]; nominal 1500 ng/mL): 102% | Accuracy vs. nominal concentration ([3]; nominal 1500 ng/mL): 102% | Mean measured concentration ([3]; nominal 1500 ng/mL): 1537 ng/mL | Accuracy vs fresh QCs ([4]; 37°C, dark, nominal 15 ng/mL): 95.8% | Accuracy vs. nominal concentration ([4]; 37°C, dark, nominal 15 ng/mL): 101% | Mean measured concentration ([4]; 37°C, dark, nominal 15 ng/mL): 15.1 ng/mL | Accuracy vs fresh QCs ([4]; 37°C, dark, nominal 1500 ng/mL): 103% | Accuracy vs. nominal concentration ([4]; 37°C, dark, nominal 1500 ng/mL): 103% | Mean measured concentration ([4]; 37°C, dark, nominal 1500 ng/mL): 1540 ng/mL | Accuracy vs fresh QCs [4, 8]: 96.6% | Accuracy vs. nominal concentration [4, 8]: 102% | Mean measured concentration [4, 8]: 15.3 ng/mL | Accuracy vs fresh QCs [4, 9]: 104% | Accuracy vs. nominal concentration [4, 9]: 104% | Mean measured concentration [4, 9]: 1557 ng/mL | Accuracy vs fresh QCs ([7]; nominal 15 ng/mL): 103% | Accuracy vs. nominal concentration ([7]; nominal 15 ng/mL): 113% | Mean measured concentration ([7]; nominal 15 ng/mL): 16.9 ng/mL | Accuracy vs fresh QCs ([7]; nominal 150 ng/mL): 96.5% | Accuracy vs. nominal concentration ([7]; nominal 150 ng/mL): 104% | Mean measured concentration ([7]; nominal 150 ng/mL): 155 ng/mL | Accuracy vs fresh QCs ([7]; nominal 1500 ng/mL): 103% | Accuracy vs. nominal concentration ([7]; nominal 1500 ng/mL): 104% | Mean measured concentration ([7]; nominal 1500 ng/mL): 1557 ng/mL
SMILES: Cc1nc2c(F)cc(-c3nc(Nc4ccc(CN5CCNCC5)cn4)ncc3F)cc2n1C(C)C [Abemaciclib-M2]
Share of the total circulating analytes in plasma [5]: 25% | Pharmacological potency vs parent drug [6]: equipotent
